Assay results reported in ChEMBL document CHEMBL1201862, “PubChem BioAssay data set” (2004).
The source made the active and inactive calls.

Legend:
[1] = human group III sPLA2 inhibitors, dose response, biochemical, QFRET, IC50 (AID 743457);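 further: green fluorescence rise as the enzyme cleaves BODIPY PC-A2 in liposomes; potency for inhibition of the enzyme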
[2] = HEK293T cytotoxicity, dose response, cytotoxicity control for miR-122 modulator project, cell-based, inhibitor set, cherry-pick, set 2 (AID 720697); assay type: functional
[3] = molecular target: Adenosylmethionine-8-amino-7-oxononanoate aminotransferase (Mycobacterium tuberculosis, UniProt P9WQ81); assay: Mycobacterium tuberculosis BioA enzyme inhibitor Measured in Biochemical System Using Plate Reader - 2163-02_Inhibitor_Dose_CherryPick_Activity.; assay type: functional, Mycobacterium tuberculosis UT205
[4] = molecular target: Tyrosyl-DNA phosphodiesterase 2 (Homo sapiens, UniProt O95551); assay: human TDP2 enzyme inhibitors, dose response, biochemical, epi absorbance, IC50 (AID 743297)
[5] = cells; assay type: functional, cell-based; details: HEK-CNG
[6] = molecular target: Galanin receptor type 3 (Homo sapiens, UniProt O60755); assay: Fluorescence-based cell-based primary high throughput dose response assay to identify antagonists of the Galanin Receptor 3 (GalR3).; assay type: functional
[7] = molecular target: Albumin (Bos taurus, UniProt P02769); assay: Counterscreen for inhibitors of T-cell receptor (TCR)-CD3 interaction: Fluorescence-based biochemical high throughput dose response assay to identify inhibitors of T-cell receptor (TCR)-CD3 interaction using a TAMRA-labeled BSA probe.; assay type: functional
[8] = molecular target: Hepatocyte nuclear factor 4-alpha (Homo sapiens, UniProt P41235); assay type: functional, cell-based;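 further: biochemical luminescence-based dose-response counterscreen measuring inhibition of HNF4 dimerization, run alongside a screen for blockers of ABHD5–perilipin-5 interaction; split luciferase complementation of HNF4 fusion proteins in cell lysate measuring dimerization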
[9] = molecular target: Long-chain-fatty-acid--AMP ligase FadD28 (Mycobacterium tuberculosis, UniProt P9WQ59); assay: Fluorescence polarization aasay to screen for inhibitors that compete for the binding of FadD28 to a bisubstrate Measured in Biochemical System Using Plate Reader - 2147-01_Inhibitor_Dose_CherryPick_Activity.; assay type: functional, Mycobacterium tuberculosis H37Rv
[10] = ARNT/TACC3 interaction disruptors, potency, confirmation, biochemical, AlphaScreen, cherry-picked samples (AID 651703); assay type: functional, Homo sapiens;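 further: His-tagged ARNT PAS-B domain paired with GST-TACC3 E629A dimer coactivator fragment; potency of inhibitors that break up the complex and lower AlphaScreen signal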
[11] = molecular target: T1, Endoribonuclease toxin MazF (Escherichia coli K-12, UniProt P0AE70); assay: fluorescent RNA oligo signal without MazF, dose response, counter-screen for MazEF activator project, biochemical, fluorescence, single-stranded RNase substrate (AID 588502); assay type: functional
T1 sequence (P0AE70 whole entry): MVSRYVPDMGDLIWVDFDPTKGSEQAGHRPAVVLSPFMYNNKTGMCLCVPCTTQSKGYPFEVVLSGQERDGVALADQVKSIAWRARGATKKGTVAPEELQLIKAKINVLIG

[12] = molecular target: T1, Endoribonuclease toxin MazF; assay: MazF toxin RNase activators, dose response, biochemical, fluorescence, single-stranded RNA substrate, uHTS hits (AID 588481); assay type: functional
[13] = molecular target: T2, Sentrin-specific protease 1 (Homo sapiens, UniProt Q9P0U3); assay: Dose response confirmation of small molecule inhibitors of the catalytic domain of the SUMO protease, SENP1 in a FRET assay.; assay type: functional; details: read-out: IC50_Mean
T2 sequence (Q9P0U3 whole entry): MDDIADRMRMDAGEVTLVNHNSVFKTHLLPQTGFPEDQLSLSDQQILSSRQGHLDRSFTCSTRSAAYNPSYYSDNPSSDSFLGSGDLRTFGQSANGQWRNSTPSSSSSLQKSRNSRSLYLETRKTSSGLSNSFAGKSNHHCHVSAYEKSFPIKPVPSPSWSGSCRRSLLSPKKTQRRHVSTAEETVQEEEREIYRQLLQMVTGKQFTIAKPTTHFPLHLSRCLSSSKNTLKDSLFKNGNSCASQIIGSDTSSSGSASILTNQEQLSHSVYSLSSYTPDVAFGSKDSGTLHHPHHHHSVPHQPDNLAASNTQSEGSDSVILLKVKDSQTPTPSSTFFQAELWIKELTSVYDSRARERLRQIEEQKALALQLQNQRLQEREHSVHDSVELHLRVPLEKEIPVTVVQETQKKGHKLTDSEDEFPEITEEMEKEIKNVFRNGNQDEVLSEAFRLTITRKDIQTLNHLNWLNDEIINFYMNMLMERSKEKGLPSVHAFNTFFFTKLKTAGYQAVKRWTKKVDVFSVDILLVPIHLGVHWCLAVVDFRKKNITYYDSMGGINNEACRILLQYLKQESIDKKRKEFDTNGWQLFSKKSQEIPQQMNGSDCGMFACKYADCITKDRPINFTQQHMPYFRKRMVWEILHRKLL

[14] = molecular target: T2, Sentrin-specific protease 1; assay: potency of human SENP1 inhibitors, dose response, biochemical, kinetic FRET (AID 651697); assay type: functional; details: read-out: IC50_Mean
[15] = molecular target: T3, DNA repair and recombination protein RAD54-like (Homo sapiens, UniProt Q92698); assay: inhibitors of human RAD54 branch migration, confirmation, biochemical, fluorescence, cherry-picked samples, dose series (AID 651657); assay type: functional
T3 sequence (Q92698 whole entry): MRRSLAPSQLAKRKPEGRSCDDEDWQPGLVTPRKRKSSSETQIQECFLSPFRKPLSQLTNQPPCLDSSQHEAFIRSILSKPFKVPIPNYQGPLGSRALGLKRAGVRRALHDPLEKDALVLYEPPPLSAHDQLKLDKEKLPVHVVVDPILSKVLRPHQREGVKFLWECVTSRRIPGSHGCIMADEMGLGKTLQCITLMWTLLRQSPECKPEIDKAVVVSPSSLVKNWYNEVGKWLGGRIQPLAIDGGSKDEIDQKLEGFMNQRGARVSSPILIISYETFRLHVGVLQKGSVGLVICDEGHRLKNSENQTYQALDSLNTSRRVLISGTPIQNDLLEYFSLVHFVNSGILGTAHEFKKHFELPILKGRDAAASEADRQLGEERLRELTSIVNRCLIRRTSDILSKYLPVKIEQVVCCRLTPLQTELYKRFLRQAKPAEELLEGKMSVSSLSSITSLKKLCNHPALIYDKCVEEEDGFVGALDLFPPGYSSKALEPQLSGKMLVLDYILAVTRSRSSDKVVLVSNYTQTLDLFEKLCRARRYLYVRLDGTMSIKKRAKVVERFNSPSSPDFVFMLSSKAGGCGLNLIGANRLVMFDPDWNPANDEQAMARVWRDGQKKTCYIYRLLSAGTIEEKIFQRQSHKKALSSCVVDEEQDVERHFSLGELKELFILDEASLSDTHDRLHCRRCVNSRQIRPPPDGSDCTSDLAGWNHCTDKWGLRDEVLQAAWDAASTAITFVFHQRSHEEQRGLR

[16] = molecular target: SWI/SNF-related matrix-associated actin-dependent regulator of chromatin subfamily A member 2 (Homo sapiens, UniProt P51531); assay: Luminescence-based cell-based high throughput dose response assay to identify activators of the function of SWI/SNF related, matrix associated, actin dependent regulator of chromatin, subfamily a, member 2 (SMARCA2, BRM).; assay type: functional
[17] = Counterscreen for activators of the function of SWI/SNF related, matrix associated, actin dependent regulator of chromatin, subfamily a, member 2 (SMARCA2, BRM): Luminescence-based cell-based high throughput dose response assay to identify non-selective compounds using the VP16 reporter assay.; assay type: functional
[18] = molecular target: Fructose-bisphosphate aldolase (Mycobacterium tuberculosis, UniProt P9WQA3); assay: Fluorescence-based biochemical high throughput dose response assay for inhibitors of the fructose-bisphosphate aldolase (FBA) of M. tuberculosis.; assay type: functional
[19] = molecular target: Beta-galactosidase (Escherichia coli, UniProt Q8VNN2); assay: Dose response counterscreen for EBI2 assay utilizing the enzyme, b-galactosidase.; assay type: functional
[20] = molecular target: Beta Lactamase (Pseudomonas aeruginosa, UniProt Q932Y6); assay: beta-lactamase reporter inhibitor potency, dose response, artefact control for NOD2-RIPK2 interaction inhibitor project, BLA reporter cells, FRET fluorescence (AID 651552); assay type: functional, cell-based
[21] = Fluorescence-based cell-based high throughput dose response assay for inhibitors of the interaction of nucleotide-binding oligomerization domain containing 2 (NOD2) and the receptor-interacting serine-threonine kinase 2 (RIPK2).; assay type: functional; details: Homo sapiens
[22] = microbe, parasite or virus in culture; assay type: functional; details: Mycobacterium tuberculosis
[23] = Counterscreen for inhibitors of Trypanosoma brucei methionyl tRNA synthetase (MetRS): Luminescence-based cell-based high throughput dose response assay to identify compounds that are cytotoxic to Jurkat human T lymphocyte cells.; assay type: functional
[24] = molecular target: Peroxisome proliferator-activated receptor gamma/Nuclear receptor coactivator 2 (Homo sapiens, UniProt P37231); assay: (§1) TR-FRET dose response biochemical High Throughput Screening assay for agonists of the steroid receptor coactivator 2 (SRC-2) recruitment by the peroxisome proliferator-activated receptor gamma (PPAR gamma): non-selective agonists. [Related pubchem assays: 1297, 1032 ]; assay type: functional
[25] = molecular target: Peroxisome proliferator-activated receptor gamma/Nuclear receptor coactivator 1 (Homo sapiens, UniProt P37231); assay: as §1, with “1 (SRC-1)” for “2 (SRC-2)”, “assays (depositor defined):AID1300, AID1808, AID504735, AID631]” for “assays: 1297, 1032 ]”; assay type: protein assay
[26] = molecular target: Peroxisome proliferator-activated receptor gamma/Nuclear receptor coactivator 3 (Homo sapiens, UniProt P37231); assay: as §1, with “3 (SRC-3)” for “2 (SRC-2)”, “1301 (Confirmation screen.), 1048 (Primary screen.)]” for “1297, 1032 ]”; assay type: functional

Sequence of SWI/SNF-related matrix-associated actin-dependent regulator of chromatin subfamily A member 2 (P51531 whole entry): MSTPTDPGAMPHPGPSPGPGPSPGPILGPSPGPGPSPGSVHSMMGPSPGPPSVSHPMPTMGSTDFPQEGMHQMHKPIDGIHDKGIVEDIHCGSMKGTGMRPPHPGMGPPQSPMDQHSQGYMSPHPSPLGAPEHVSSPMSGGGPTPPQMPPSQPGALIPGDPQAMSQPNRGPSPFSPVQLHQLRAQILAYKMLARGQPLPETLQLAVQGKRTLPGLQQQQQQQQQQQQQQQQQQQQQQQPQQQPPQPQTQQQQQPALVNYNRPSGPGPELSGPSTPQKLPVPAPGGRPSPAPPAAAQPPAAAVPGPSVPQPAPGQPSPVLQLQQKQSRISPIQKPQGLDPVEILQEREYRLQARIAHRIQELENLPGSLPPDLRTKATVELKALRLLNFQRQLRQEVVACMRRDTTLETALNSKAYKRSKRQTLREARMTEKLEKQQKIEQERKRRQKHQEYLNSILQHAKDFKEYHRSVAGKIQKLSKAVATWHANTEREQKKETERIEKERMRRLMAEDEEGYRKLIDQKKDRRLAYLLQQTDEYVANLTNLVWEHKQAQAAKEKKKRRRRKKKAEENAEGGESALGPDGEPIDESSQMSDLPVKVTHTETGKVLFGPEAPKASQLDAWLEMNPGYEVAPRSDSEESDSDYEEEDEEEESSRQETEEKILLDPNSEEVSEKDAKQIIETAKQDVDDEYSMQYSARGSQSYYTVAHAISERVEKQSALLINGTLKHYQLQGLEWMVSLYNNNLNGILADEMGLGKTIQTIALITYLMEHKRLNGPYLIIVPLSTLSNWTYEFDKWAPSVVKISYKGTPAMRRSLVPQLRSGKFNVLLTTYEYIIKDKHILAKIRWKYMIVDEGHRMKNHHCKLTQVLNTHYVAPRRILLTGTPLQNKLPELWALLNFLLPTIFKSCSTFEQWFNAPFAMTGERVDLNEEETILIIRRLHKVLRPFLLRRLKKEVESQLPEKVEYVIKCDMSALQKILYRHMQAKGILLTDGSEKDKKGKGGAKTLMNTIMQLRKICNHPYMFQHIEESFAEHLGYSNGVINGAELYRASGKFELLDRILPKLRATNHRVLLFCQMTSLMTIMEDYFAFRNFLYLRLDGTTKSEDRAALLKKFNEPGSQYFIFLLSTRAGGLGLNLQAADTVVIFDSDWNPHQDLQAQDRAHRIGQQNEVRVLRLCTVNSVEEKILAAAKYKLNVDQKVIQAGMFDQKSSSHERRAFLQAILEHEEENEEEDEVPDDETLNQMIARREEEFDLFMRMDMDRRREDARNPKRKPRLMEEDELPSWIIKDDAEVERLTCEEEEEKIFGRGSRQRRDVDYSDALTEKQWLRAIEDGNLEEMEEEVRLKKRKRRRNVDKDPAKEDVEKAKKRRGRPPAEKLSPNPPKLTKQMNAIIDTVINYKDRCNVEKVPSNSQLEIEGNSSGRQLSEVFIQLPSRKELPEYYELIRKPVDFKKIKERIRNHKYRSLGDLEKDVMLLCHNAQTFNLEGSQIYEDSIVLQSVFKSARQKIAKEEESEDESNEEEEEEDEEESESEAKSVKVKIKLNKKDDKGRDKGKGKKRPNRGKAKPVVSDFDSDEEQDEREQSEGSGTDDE
Sequence of Hepatocyte nuclear factor 4-alpha (P41235 whole entry, the tested form may be a part): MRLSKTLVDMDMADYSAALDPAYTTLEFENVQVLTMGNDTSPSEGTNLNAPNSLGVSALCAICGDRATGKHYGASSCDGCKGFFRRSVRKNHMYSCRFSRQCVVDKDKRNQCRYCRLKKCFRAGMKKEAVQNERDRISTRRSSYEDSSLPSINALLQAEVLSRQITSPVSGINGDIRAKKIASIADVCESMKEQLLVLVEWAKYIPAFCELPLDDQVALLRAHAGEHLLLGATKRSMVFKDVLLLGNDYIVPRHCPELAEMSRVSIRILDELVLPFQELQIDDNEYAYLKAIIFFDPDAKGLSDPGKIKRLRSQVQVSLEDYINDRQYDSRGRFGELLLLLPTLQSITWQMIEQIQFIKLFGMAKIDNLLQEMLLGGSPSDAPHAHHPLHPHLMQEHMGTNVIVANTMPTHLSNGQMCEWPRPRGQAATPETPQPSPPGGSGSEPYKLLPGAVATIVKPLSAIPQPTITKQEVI
Sequence of Galanin receptor type 3 (O60755 whole entry): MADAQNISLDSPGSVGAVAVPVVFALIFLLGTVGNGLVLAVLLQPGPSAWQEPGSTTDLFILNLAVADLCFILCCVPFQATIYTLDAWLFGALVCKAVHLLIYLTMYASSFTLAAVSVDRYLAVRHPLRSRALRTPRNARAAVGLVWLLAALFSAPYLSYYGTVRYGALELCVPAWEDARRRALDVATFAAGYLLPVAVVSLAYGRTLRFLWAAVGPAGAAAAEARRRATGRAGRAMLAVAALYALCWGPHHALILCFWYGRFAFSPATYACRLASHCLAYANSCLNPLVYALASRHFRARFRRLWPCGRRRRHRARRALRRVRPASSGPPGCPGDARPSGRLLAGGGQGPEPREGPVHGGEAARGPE
Sequence of Fructose-bisphosphate aldolase (P9WQA3 whole entry): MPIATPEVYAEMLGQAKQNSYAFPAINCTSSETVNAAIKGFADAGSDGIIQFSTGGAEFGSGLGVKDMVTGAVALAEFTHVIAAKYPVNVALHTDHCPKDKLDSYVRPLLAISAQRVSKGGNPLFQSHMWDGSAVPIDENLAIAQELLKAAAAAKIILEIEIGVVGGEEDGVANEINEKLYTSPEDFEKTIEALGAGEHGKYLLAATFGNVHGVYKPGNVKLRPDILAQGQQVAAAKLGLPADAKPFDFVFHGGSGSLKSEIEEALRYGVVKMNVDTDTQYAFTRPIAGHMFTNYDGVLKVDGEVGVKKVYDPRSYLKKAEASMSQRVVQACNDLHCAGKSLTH
Sequence of Adenosylmethionine-8-amino-7-oxononanoate aminotransferase (P9WQ81 whole entry): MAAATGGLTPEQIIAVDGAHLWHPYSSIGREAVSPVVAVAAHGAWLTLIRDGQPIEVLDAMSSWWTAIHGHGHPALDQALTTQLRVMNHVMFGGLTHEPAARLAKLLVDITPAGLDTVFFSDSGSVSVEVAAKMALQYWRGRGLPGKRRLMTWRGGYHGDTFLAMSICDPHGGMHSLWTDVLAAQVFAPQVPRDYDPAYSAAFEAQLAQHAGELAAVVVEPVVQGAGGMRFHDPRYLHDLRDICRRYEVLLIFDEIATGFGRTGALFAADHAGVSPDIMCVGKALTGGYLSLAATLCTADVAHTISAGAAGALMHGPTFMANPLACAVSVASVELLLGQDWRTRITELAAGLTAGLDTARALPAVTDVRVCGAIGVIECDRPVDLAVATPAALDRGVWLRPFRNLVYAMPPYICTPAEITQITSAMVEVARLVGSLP
Sequence of Albumin (P02769 whole entry, the tested form may be a part): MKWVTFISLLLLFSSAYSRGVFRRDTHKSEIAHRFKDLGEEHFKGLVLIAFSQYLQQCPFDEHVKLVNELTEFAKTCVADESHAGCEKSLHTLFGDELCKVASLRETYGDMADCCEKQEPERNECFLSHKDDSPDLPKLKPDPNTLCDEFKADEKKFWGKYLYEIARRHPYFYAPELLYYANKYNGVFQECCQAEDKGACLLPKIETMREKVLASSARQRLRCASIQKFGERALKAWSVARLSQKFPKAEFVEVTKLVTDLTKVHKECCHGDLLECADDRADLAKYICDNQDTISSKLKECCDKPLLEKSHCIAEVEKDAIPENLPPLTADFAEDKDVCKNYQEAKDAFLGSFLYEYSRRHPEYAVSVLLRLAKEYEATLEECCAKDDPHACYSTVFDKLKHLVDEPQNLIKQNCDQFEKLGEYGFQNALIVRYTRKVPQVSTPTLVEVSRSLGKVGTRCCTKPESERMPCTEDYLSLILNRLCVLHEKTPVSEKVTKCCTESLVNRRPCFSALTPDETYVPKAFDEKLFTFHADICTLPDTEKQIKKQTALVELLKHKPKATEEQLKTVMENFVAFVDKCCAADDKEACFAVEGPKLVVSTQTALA
Sequence of Long-chain-fatty-acid--AMP ligase FadD28 (P9WQ59 whole entry, the tested form may be a part): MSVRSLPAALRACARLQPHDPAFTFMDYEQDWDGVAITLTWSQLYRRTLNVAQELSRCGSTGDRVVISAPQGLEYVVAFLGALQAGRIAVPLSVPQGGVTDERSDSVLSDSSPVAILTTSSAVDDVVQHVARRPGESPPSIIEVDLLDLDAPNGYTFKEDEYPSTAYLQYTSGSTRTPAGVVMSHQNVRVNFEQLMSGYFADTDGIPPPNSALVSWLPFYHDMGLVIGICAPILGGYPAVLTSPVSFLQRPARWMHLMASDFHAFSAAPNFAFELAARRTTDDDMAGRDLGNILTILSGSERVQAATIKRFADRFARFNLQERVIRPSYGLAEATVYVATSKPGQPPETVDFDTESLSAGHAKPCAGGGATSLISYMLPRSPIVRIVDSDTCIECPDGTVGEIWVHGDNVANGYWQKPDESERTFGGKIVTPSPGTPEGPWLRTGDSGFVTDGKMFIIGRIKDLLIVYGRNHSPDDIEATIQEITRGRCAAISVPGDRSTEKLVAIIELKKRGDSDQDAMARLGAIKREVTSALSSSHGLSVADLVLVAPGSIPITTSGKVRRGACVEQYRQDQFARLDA
Sequence of Tyrosyl-DNA phosphodiesterase 2 (O95551 whole entry): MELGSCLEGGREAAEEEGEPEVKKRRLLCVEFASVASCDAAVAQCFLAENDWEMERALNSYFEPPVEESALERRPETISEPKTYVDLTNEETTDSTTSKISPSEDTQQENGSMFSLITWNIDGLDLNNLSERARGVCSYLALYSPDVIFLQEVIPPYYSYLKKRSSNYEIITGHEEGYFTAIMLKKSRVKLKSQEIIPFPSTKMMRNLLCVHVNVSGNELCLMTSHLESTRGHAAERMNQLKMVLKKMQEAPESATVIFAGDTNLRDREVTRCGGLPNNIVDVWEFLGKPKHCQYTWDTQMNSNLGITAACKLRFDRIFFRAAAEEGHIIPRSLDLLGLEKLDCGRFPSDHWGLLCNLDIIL

Q: With O=C(NNC(=S)Nc1ccc(Cl)cc1)c1ccccc1 as the compound, how does the IC50 [1] read?
A: > 122 µM (inactive)

Q: With Cc1ccc(C2CC(C(F)(F)F)n3nc(C(=O)NCc4ccco4)cc3N2)cc1 (stereo not given) as the compound, how does the AC50 [2] read?
A: 1.94 µM (active)

Q: For CCn1c(=O)c(=O)n(CC)c2cc(S(=O)(=O)Nc3cc(C)ccc3C)ccc21, which AC50 [3] is on record?
A: 13.6 µM (active)

Q: With CCCCn1c(NS(=O)(=O)c2ccc(C)cc2)c(C(=O)OCC)c2nc3ccccc3nc21 as the compound, how does the IC50 [4] read?
A: > 128 µM (inactive)

Q: For NC(=O)c1cn(-c2ccccc2)nc1-c1cc2ccccc2oc1=O, which EC50 [5] is on record?
A: > 29.9 µM (inactive)

Q: And the IC50 [6]?
A: 13 µM (inactive)

Q: Which IC50 [7] does the source give for C/N=C(\S)NNC(=O)c1cccn(Cc2cccc(Cl)c2)c1=O here?
A: > 94.1 µM (inactive)

Q: With COc1ccc(/C=C\C(=O)CC(O)(c2ccccc2)C(F)(F)F)cc1 (stereo not given) as the compound, how does the IC50 [8] read?
A: 3.93 µM (active)

Q: With CC(C)CCN=C(S)Nc1ccc2nc3n(c(=O)c2c1)CCCCC3 as the compound, how does the AC50 [9] read?
A: 39.4 µM (active)

Q: Which AC50 [10] does the source give for CCCCCCNc1cc2n(c(=O)n1)CCc1cc(OC)c(OC)cc1-2 here?
A: 101 µM (active)

Q: Which AC50 [10] does the source give for O=C(COC(=O)c1ccc(Cl)nc1)Nc1nnc(-c2ccccc2)o1 here?
A: 115 µM (active)

Q: Which EC50 [11] does the source give for O=C(Nc1cc(F)cc(F)c1)c1ccc(NCCc2ccccc2)c([N+](=O)[O-])c1 here?
A: 88.4 µM (inactive)

Q: What about the EC50 [12] of the same compound?
A: > 99 µM (inactive)

Q: What about the IC50 [13] of the same compound?
A: 14 µM (active)

Q: And the IC50 [14]?
A: 26.2 µM (inactive)

Q: Which results are given for CCN(CC)CCNc1ccc(CO)c2oc3ccccc3c(=O)c12?
A: AC50 [15]: 18.7 µM (active); IC50 [13]: 28.4 µM (inactive); IC50 [14]: 22.3 µM (inactive)

Q: With COc1ccc(CNC(=O)NCCc2c[nH]c3ccccc23)cc1 as the compound, how does the AC50 [2] read?
A: 1.87 µM (active)

Q: With O=c1[nH]c2ccccc2nc1-c1cccs1 as the compound, how does the EC50 [16] read?
A: > 91.1 µM (inactive)

Q: Which EC50 [17] does the source give for Oc1nc2ccccc2nc1-c1cccs1 here?
A: > 91.1 µM (inactive)

Q: Which AC50 [3] does the source give for COc1ccc(C(=O)Nc2cccc(NC(=O)c3cccs3)c2)cc1 here?
A: 4.26 µM (active)

Q: For COC(=O)Nc1nnc(-c2ccccc2OC)s1, which IC50 [18] is on record?
A: 1.9 µM (active)

Q: Which IC50 [18] does the source give for CN1Cc2c(N3CCOCC3)nc3sc(C#N)c(N)c3c2CC1(C)C here?
A: 1.06 µM (active)

Q: For O=C(c1cc2ccccc2o1)N1CCN(S(=O)(=O)c2ccc(F)c(F)c2F)CC1, which IC50 [19] is on record?
A: > 80 µM (inactive)

Q: For COc1ccc([C@H]2CC(=O)C=C(C#CC(C)(C)C)C2)cc1, which IC50 [19] is on record?
A: > 80 µM (inactive)

Q: Which IC50 [20] does the source give for Cc1ccc(-n2nc3c(N4CCC(C(=O)NCc5ccccc5C)CC4)nnc(C)c3c2C)cc1 here?
A: 16.2 µM (inactive)

Q: And the IC50 [21]?
A: 8.76 µM (active)

Q: What about the CC50 [22] of the same compound?
A: 27.8 µM (active)

Q: What does the source list for CSc1nc(N)c(C#N)c(-c2ccccc2Cl)c1C#N?
A: EC50 [5]: > 29.9 µM (inactive); IC50 [6]: 7.09 µM (active)

Q: With CC(C)(C)NC(=O)C(c1ccccc1F)n1c(=O)c(-c2ccco2)nc2ccccc21 (stereo not given) as the compound, how does the IC50 [8] read?
A: 1.85 µM (active)

Q: Which IC50 [23] does the source give for N#Cc1ccccc1CSc1ccc(-c2nc3ccccc3[nH]2)cn1 here?
A: 26.5 µM (inactive)

Q: And the EC50 [24]?
A: > 79.4 µM (not active)

Q: And the EC50 [25]?
A: > 79.4 µM (inactive)

Q: What about the EC50 [26] of the same compound?
A: > 79.4 µM (not active)

Q: With Cc1c(C(=O)NNC(=O)c2ccccc2O)oc2ccccc12 as the compound, how does the IC50 [7] read?
A: > 94 µM (inactive)

Q: For CC(=O)c1cccc(-c2cnc3c(NC=O)cc(-c4ccc(N5CCN(C)CC5)cc4)cn23)c1, which EC50 [17] is on record?
A: > 91.2 µM (inactive)

Q: What about the EC50 [16] of the same compound?
A: > 30.4 µM (inactive)

Q: Which AC50 [9] does the source give for Nc1ncnc2c1ncn2[C@@H]1O[C@H](CNCc2ccc(OCC(=O)Nc3nccs3)cc2)[C@@H](O)[C@H]1O here?
A: 32.3 µM (active)
